Tested on: mouse liver microsomes, percent remaining, LC-MS/MS
Assay: Inhibitors of N370S glucocerebrosidase as a Potential Chaperone Treatment of Gaucher Disease: Metabolic Stability Profile
Conditions: at 5 µM; hits give high values
From the text: Glucocerebrosidase (GC) catalyzes the hydrolysis of beta-glucocerebroside to glucose and ceramide in lysosomes. Mutations in the glucocerebrosidase gene result in Gaucher disease, an autosomal recessive lysosomal storage disorder. Many of the mutations encountered in patients with Gaucher disease are missense alterations that may cause misfolding, decreased stability and/or mistrafficking of this lysosomal protein. […] These inhibitors include iminosugar analogs and three non-iminosugar inhibitors identified from a previous HTS of 62,000 compounds with the wild type recombinant enzyme. After further testing a probe has been identified and was characterized though AMDE tests. Mouse liver microsomes are created through broken up endoplasmic reticulum from mouse liver. These liver microsomes contain many drug metabolizing enzymes, such as Cytochome P-450s and flavin-containing monooxygenases. […] NIH Chemical Genomics Center [NCGC] NIH Molecular Libraries Probe Production Centers Network [MLPCN] MLPCN Grant: MH086442-01 Assay Submitter (PI): Wei Zheng
5uM of compound is incubated with mouse liver microsome; the reference compounds are verapamil and warfarin. Compounds are incubated and samples are analyzed with LC-MS/MS.

percent remaining: 102%
SMILES: S=C(NCCCc1cnc[nH]1)NCCCN(Cc1ccc(Cl)c(Cl)c1)c1ccc(Br)cn1

Reference: PubChem BioAssay AID504748 (National Center for Advancing Translational Sciences (NCATS), 2011)
